Measured values published in patent US4791139A, “Diphenyl ether derivatives and their use as insecticides” (Imperial Chemical Industries PLC, priority 1986, dated 1988).

Legend:
Type in all cases: in vivo
[1] = test system: Nilaparvata lugens (brown plant hopper - nymphs); assay: Contact test, brown plant hopper - nymphs (NL), Rice plant; conditions: 72 h, 3 days, read-out: NL grading of mortality
Method in brief: (§1)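 Mortality scored 1–7 days post-treatment. Test liquids at 100–500 ppm (acetone stock diluted into water + 0.1% w/w wetting agent) applied to pests, their plant/food medium, or both.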

[2] = test system: Musca domestica (houseflies - adults); assay: Contact test, houseflies - adults (MD), Cotton wool/sugar; conditions: 24 h, 1 day, read-out: MD grading of mortality
Method in brief: as §1

[3] = test system: Blattella germanica (cockroach nymphs); assay: Residual test, cockroach nymphs (BG), Plastic pot; conditions: 72 h, 3 days, read-out: BG grading of mortality
Method in brief: as §1

[4] = test system: Diabrotica balteata (rootworm larvae); assay: Residual test, rootworm larvae (DB), Filter paper/maize seed; conditions: 72 h, 3 days, read-out: DB grading of mortality
Method in brief: as §1

[5] = test system: Tetranychus urticae (spider mites - ova); assay: Contact test, spider mites - ova (TUe), French bean leaf; conditions: 144 h, 6 days, read-out: TUE grading of mortality
Method in brief: as §1

[6] = test system: Myzus persicae (aphids); assay: Contact test, aphids (MP), Chinese Cabbage leaf; conditions: 72 h, 3 days, read-out: MP grading of mortality
Method in brief: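 Aphids on a host plant and/or the plant itself were treated with 100–500 ppm of product, applied from acetone diluted in water containing 0.1% SYNPERONIC NX wetting agent. Mortality was scored usually one to seven days after treatment.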

[7] = test system: Chilo partellus (Maize stemborer - larvae); assay: Residual test, Maize stemborer - larvae (CP), Oilseed rape; conditions: 72 h, 3 days, read-out: CP grading of mortality
Protocol: The activity of the Product was determined using a variety of insect pests. The Product was used in the form of liquid preparations containing from 100 to 500 parts per million (ppm) by weight of the Product. The preparations were made by dissolving the Product in acetone and diluting the solutions with water containing 0.1% by weight of a wetting agent sold under the trade name "SYNPERONIC" NX until the liquid preparations contained the required concentration of the Product. "SYNPERONIC" is a Registered Trade Mark.
The test procedure adopted with regard to each pest was basically the same and comprised supporting a number of the pests on a medium which was usually a host plant or a foodstuff on which the pests feed, and treating either or both the pests and the medium with the preparations. The mortality of the pests was then assessed at periods usually varying from one to seven days after the treatment.
The results of the tests are given in Table III for each of the Products, at the rate in parts per million given in the second column as a grading of mortality designated as A, B or C wherein A indicates 80-100% mortality or knockdown (70-100% for Meloidogyne incognita), B indicates 50-79% mortality knockdown or knockdown (50-69% for Meloidogyne incognita) and C indicates less than 50% mortality or knockdown.
In Table III the pest organism used is designated by a letter code and the pests species, the support medium or food, and the type and duration of test is given in Table II.
(Maize stemborer - larvae)

[8] = test system: Tetranychus urticae (spider mites - adult); assay: Contact test, spider mites - adult (TUa), French bean leaf; conditions: 72 h, 3 days, read-out: TUA grading of mortality
Method in brief: as §1

[9] = test system: Musca domestica (houseflies - adults); assay: Knockdown test, houseflies - adults (MD/KD), Cotton wool/sugar; conditions: 4 hours, read-out: MD/KD grading of knockdown
Method in brief: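 Product was dissolved in acetone and diluted with water containing 0.1% wetting agent to 100–500 ppm. The flies and/or their food medium were treated with the preparation. Mortality was scored 1–7 days after treatment, with an additional knockdown assessment for houseflies.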

[10] = test system: Meloidogyne incognita (Tomato root knot eelworm - larvae); assay: Residual test, Tomato root knot eelworm - larvae (MI), Semi in-vitro; conditions: 168 h, application rate is half that recorded, 7 days, read-out: MI grading of mortality; for mortality at 250 µg/mL: rate column 500 ppm; for mortality at 125 µg/mL: rate 250 ppm
[11] = test system: Heliothis virescens (tobacco budworm - larvae); assay: Residual test, tobacco budworm - larvae (HV), Cotton leaf; conditions: 72 h, read-out: HV grading of mortality
Method in brief: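 Products applied as acetone solutions diluted in water with 0.1% wetting agent, at 100–500 ppm; pests on host plant or food, with pests and/or medium treated. Mortality or knockdown scored 1–7 days after treatment and graded A (80–100%), B (50–79%) or C (<50%).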

[12] = test system: Spodoptera exigua (lesser army worm - larvae); assay: Residual test, lesser army worm - larvae (SP), Cotton leaf; conditions: 72 h, 500 ppm, 3 days, read-out: SP grading of mortality
Method in brief: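 Compound dissolved in acetone and diluted in water with 0.1% Synperonic NX wetting agent to 100–500 ppm. Pests on host plant or food, with pests and/or medium treated. Mortality assessed 1–7 days after treatment and graded A (80–100%), B (50–79%) or C (<50%).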

Row | Structure (SMILES) | mortality at 500 ppm [1] [%] | mortality at 500 ppm [2] [%] | mortality at 500 ppm [3] [%] | mortality at 500 ppm [4] [%] | mortality at 500 ppm [5] [%] | mortality at 500 ppm [6] [%] | mortality at 500 ppm [7] [%] | pest or weed control at 500 ppm [9] [%] | mortality at 250 ppm [1] [%] | mortality at 250 ppm [2] [%] | mortality at 250 ppm [3] [%] | mortality at 250 ppm [4] [%] | mortality at 250 ppm [5] [%] | mortality at 250 ppm [6] [%] | mortality at 125 µg/mL [10] [%] | mortality at 250 ppm [11] [%] | mortality at 250 ppm [7] [%] | mortality at 250 ppm [8] [%] | pest or weed control at 250 ppm [9] [%] | also measured
1 | FC(F)(F)C(CCCc1cccc(Oc2ccccc2)c1)c1ccc(Cl)cc1 (racemic) [Compound 38, 1,1,1-Trifluoro-2-(4-chlorophenyl)-5-(3-phenoxyphenyl)pentane] | 80 to 100 | 50 to 79 | 50 to 79 | 80 to 100 | < 50 | < 50 | 80 to 100 | 50 to 79 | – | – | – | – | – | – | – | – | – | – | – | mortality at 500 ppm [8]: 80 to 100%
2 | CCOc1ccc(C(=CCCc2cccc(Oc3ccccc3)c2)C(F)(F)F)cc1 [Compound 1, E,Z-2-(4-ethoxyphenyl)-5-(3-phenoxyphenyl)-1,1,1-trifluoropent-2-ene] | 80 to 100 | 80 to 100 | 80 to 100 | 80 to 100 | – | 80 to 100 | 80 to 100 | 80 to 100 | – | – | – | – | – | – | – | – | – | – | – | mortality at 250 µg/mL [10]: 50 to 69%; mortality at 500 ppm [11]: 80 to 100%
3 | CCOc1ccc(/C(=C/CCc2cccc(Oc3ccccc3)c2)C(F)(F)F)cc1 [Compound 4, Z-1,1,1-trifluoro-2-(4-ethoxyphenyl)-5-(3-phenoxyphenyl)pent-2-ene] | < 50 | < 50 | < 50 | < 50 | < 50 | < 50 | 80 to 100 | < 50 | – | – | – | – | – | – | – | – | – | – | – | mortality at 250 µg/mL [10]: < 50%; mortality at 500 ppm [11]: 80 to 100%; mortality at 500 ppm [8]: < 50%
4 | CCOc1ccc(C(C/C=C/c2cccc(Oc3ccccc3)c2)C(F)(F)F)cc1 (centres unmarked) [Compound 34, 1,1,1-trifluoro-2-(4-ethoxyphenyl)-5-(3-phenoxyphenyl)pent-4-ene] | – | – | – | – | – | – | – | – | < 50 | < 50 | < 50 | < 50 | < 50 | 80 to 100 | 70 to 100 | < 50 | 80 to 100 | < 50 | < 50 | –
5 | CCOc1ccc(/C(=C\C=C/c2ccc(F)c(Oc3ccccc3)c2)C(F)(F)F)cc1 [Compound 37, 1,1,1-trifluoro-2-(4-ethoxyphenyl)-5-(4-fluoro-3-phenoxyphenyl)penta-2,4-diene] | – | – | – | – | – | – | – | – | < 50 | < 50 | 50 to 79 | < 50 | < 50 | < 50 | < 50 | < 50 | < 50 | < 50 | < 50 | –
6 | CCOc1ccc(C(CCCc2cccc(Oc3ccccc3)c2)C(F)(F)C(F)(F)F)cc1 (racemic) [Compound 11, 1,1,1,2,2-Pentafluoro-3-(4-ethoxyphenyl)-6-(3-phenoxyphenyl)hexane] | – | – | – | – | – | – | – | – | < 50 | < 50 | < 50 | < 50 | < 50 | < 50 | < 50 | < 50 | < 50 | < 50 | 80 to 100 | –
7 | Fc1ccc(CCCC(c2ccc(OC(F)(F)F)cc2)C(F)(F)F)cc1Oc1ccccc1 (racemic) [Compound 20, 1,1,1-Trifluoro-2-(4-trifluoromethoxyphenyl)-5-(4-fluoro-3-phenoxyphenyl)pentane] | – | – | – | – | – | – | – | – | – | – | – | – | – | – | – | – | – | – | – | mortality at 100 ppm ([1]; 100 ppm): 80 to 100%; mortality at 100 ppm ([2]; 100 ppm): 80 to 100%; mortality at 100 ppm ([3]; 100 ppm): 80 to 100%; mortality at 100 ppm ([4]; 100 ppm): 80 to 100%; mortality at 100 ppm ([5]; 100 ppm): 80 to 100%; mortality at 100 ppm ([6]; 100 ppm): 80 to 100%; mortality at 50 µg/mL ([10]; rate column 100 ppm): < 50%; mortality at 100 ppm [11]: 80 to 100%; mortality at 100 ppm ([7]; 100 ppm): 80 to 100%; mortality at 100 ppm ([8]; 100 ppm): 50 to 79%; pest or weed control at 100 ppm ([9]; 100 ppm): 80 to 100%
8 | CCOc1ccc(C(CC=Cc2cccc(Oc3ccccc3)c2)C(F)(F)F)cc1 (centres unmarked) [Compound 31, 1,1,1-trifluoro-2-(4-ethoxyphenyl)-5-(3-phenoxyphenyl)pent-4-ene] | – | – | – | – | – | – | – | – | 80 to 100 | 80 to 100 | 80 to 100 | 80 to 100 | < 50 | 80 to 100 | < 50 | 80 to 100 | 80 to 100 | < 50 | 80 to 100 | –
9 | FC(F)(F)c1ccc(C(CCCc2cccc(Oc3ccccc3)c2)C(F)(F)F)cc1 (racemic) [Compound 16, 1,1,1-Trifluoro-2-(4-trifluoromethylphenyl)-5-(3-phenoxyphenyl)pentane] | – | – | – | – | – | – | – | – | 80 to 100 | 80 to 100 | 80 to 100 | 80 to 100 | – | 80 to 100 | < 50 | 80 to 100 | 80 to 100 | 50 to 79 | 80 to 100 | –
10 | FC(F)(F)C(=CCCc1cccc(Oc2ccccc2)c1)c1ccc(Br)cc1 [Compound 39, 1,1,1-Trifluoro-2-(4-bromophenyl)-5-(3-phenoxyphenyl)-pent-2-ene] | < 50 | < 50 | 50 to 79 | < 50 | < 50 | < 50 | 80 to 100 | < 50 | – | – | – | – | – | – | – | – | – | – | – | –
11 | COc1ccc(C(=CCCc2cccc(Oc3ccccc3)c2)C(F)(F)F)cc1 [Compound 46, 1,1,1-Trifluoro-2-(4-methoxyphenyl)-5-(3-phenoxyphenyl)pent-2-ene] | < 50 | < 50 | < 50 | < 50 | < 50 | < 50 | – | < 50 | – | – | – | – | – | – | – | – | – | – | – | mortality at 250 µg/mL [10]: < 50%; mortality at 500 ppm [11]: 80 to 100%; mortality at 500 ppm [12]: < 50%; mortality at 500 ppm [8]: < 50%
